One compound from patent publication US20250000852A1, “NITROXOLINE FOR USE IN THE TREATMENT OR PREVENTION OF A PLEXIFORM NEUROFIBROMA” (HEALX LTD, priority 2021, published 2025) can be followed below.

Test [1] relates to WT (ipn02.3λ) immortalized human-derived Schwann cells. Put plainly: CellTiter-Glo cell proliferation assay, WT Schwann cells. Type of test: cell-based. The following applies: 48 hours incubation. The source says:
(§1) In this study the efficacy of nitroxoline was investigated and its ability to reduce cellular proliferation, increase apoptosis, and overall cell viability utilizing immortalized wild-type (WT) and NF1 deficient (Nf1^−/−) Schwann cells (SCs). Nf1^−/− SCs have increased survival and proliferation in vitro, consistent with the in vivo phenotypes (Kim H A et al., Mol Cell Biol. 1997; 17 (2): 862-72). The present studies utilize WT (ipn02.3λ) and NF1^−/− (ipNF95.6) immortalized human-derived SC lines. The selectivity of nitroxoline was compared between NF1^−/− and WT cells.
(§2) Cells were treated with serially diluted nitroxoline starting from […] and incubated for 48 hours. After the incubation period, proliferation, viability, and apoptosis assays were performed as described below: • Cell proliferation was assessed using the CellTiter-Glo Assay (Promega) which measures ATP consumption. […] After 10 minutes, the plates were read using a 96-well microplate luminometer. • Cellular apoptosis was assessed using the Caspase-Glo 3/7 kit (Promega). […] After 10 minutes, plates were read using a 96 well luminometer and caspase 3/7 activity was measured.

For test [2], the system named is NF1−/− (ipNF95.6) immortalized human-derived Schwann cells. Put plainly: CellTiter-Glo cell proliferation assay, NF1 deficient Schwann cells. The class given is cell-based. The following applies: 48 hours incubation.
Source text: as §1, §2

Test [3] deals with WT (ipn02.3λ) immortalized human-derived Schwann cells. Description: Caspase-Glo 3/7 apoptosis assay, WT Schwann cells. The class given is cell-based. To be noted: 48 hours incubation, caspase 3/7 activity.
Source text: as §1, §2

Test [4] concerns NF1−/− (ipNF95.6) immortalized human-derived Schwann cells. Put plainly: Caspase-Glo 3/7 apoptosis assay, NF1 deficient Schwann cells. Type of test: cell-based.
Source text: as §1, §2

The subject of test [5] is Postn-Cre+ Nf1fl/fl mouse model of plexiform neurofibroma. Put plainly: In vivo drug testing in Nf1-KO mice (plexiform neurofibroma model). To be noted: oral gavage, 12 weeks. The source says:
The aim of this study was to evaluate the effect of nitroxoline in a mouse model of neurofibromatosis type 1, more specifically a model that develops plexiform neurofibromas. This study is the same used by AstraZeneca for the approval of selumetinib for pNF.
This study uses the Postn-Cre+Nf1^fl/fl mouse model of plexiform neurofibroma. The neurofibromas that arise in these mice faithfully recapitulate human disease (Burks et al. 2019). At 4 months of age when mice (male and female) had established plexiform neurofibromas they were randomised into three treatment groups and administered nitroxoline at 120 mg/kg QD, 120 mg/kg BD or vehicle (10% DMSO in 90% corn oil) via oral gavage. Mice were treated for 12 weeks then sacrificed. Mice were perfused and fixed in 10% neutral buffered formalin.
The whole bodies were decalcified in 5% formic acid, the spinal proximal nerve tree was dissected, and nerve width (including the tumour formed along it) measured via calliper (shown in FIG. 3) across four nerves per mouse. Nerve volume was subsequently calculated using a spheroid calculation: 0.52×(width) 2 w length.
To quantify tumour number, the nerves were processed to paraffin blocks, sectioned, and stained for collagen using Masson's trichrome stain. Tumour number was scored from these slides by a clinician.
Graphs and statistical analysis of data were produced using GraphPad Prism (Ver 9).

Consider `O=[N+]([O-])c1ccc(O)c2ncccc12` [Nitroxoline, 5-nitroquinolin-8-ol], for which the “concentration at which antiproliferative effect was observed” value in test [1] and in test [2] was “greater than 1 μM” in each case. Also, the “concentration at which induction of apoptosis was evident” value is reported as “greater than 3 UM” in test [3] and “greater than 3 UM” in test [4] (Nf1−/− Schwann cells, 48 hours incubation, caspase 3/7 activity). Further, the “magnitude of the increase in apoptosis in Nf1−/− SC compared with WT SC” value in test [4] (at concentrations greater than 10 μM, 48 hours) was “significantly greater”. In addition, the “proximal nerve volume compared to vehicle treated control mice” value in test [5] (120 mg/kg BD) and in test [5] (120 mg/kg QD) was “lower proximal nerve volumes” each time. The “tumour number along the nerves compared to vehicle controls” value in test [5] (nitroxoline treated mice (120 mg/kg QD or BD)) is on record as “a reduction in tumour number”.
